Laboratory results taken from patent publication US4497818A, “2-(1,4-Benzodioxan-2-ylalkyl)imidazoles useful as antihypertensives and platelet aggregation inhibitors” (Syntex (U.S.A.) Inc., priority 1981, dated 1985).
Read-outs that look alike come from different tables or passages of the source.

Tests used:
[1] = biological target: T1, post-synaptic α-adrenoceptor (α1) (Rattus norvegicus, UniProt P43140); test: Post-synaptic α-adrenoceptor blockade (epididymal portion of rat vas deferens, contractile effects of phenylephrine); assay type: cell-based; conditions: phenylephrine agonist, number of determinations in parentheses; for Kb: for 1-ethyl b174 = lot No. 1, b175 = lot No. 2, read-out: pA2 (α1) (converted)
T1 construct: from tissue; host or cells: rat isolated vas deferens, epididymal portion
T1 sequence (P43140 1-466): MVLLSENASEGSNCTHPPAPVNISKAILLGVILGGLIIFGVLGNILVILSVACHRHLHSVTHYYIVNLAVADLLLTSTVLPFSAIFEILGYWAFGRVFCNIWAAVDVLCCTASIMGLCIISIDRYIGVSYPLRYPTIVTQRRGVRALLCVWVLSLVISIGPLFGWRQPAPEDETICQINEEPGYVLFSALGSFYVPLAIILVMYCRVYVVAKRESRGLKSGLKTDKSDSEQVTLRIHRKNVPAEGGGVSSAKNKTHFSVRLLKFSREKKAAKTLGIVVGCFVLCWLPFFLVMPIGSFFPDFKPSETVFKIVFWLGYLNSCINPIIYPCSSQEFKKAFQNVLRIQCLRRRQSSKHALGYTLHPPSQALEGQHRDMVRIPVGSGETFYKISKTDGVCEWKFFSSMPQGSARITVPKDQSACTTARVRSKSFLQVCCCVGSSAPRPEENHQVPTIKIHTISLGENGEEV
Text: The contralateral portions served as control tissues.
J. Pharmacol.; 14: 48-58 (1959).

[2] = LD50, intraperitoneal injection in mice; conditions: mouse, in vivo, ip, per body weight
[3] = test system: blood platelets; test: Platelet aggregation inhibition; assay type: cell-based; conditions: hydrochloride salt; for inhibition at 500 µM: at 5 × 10^-4 M, read-out: inhibition From Maximum Height (ΔT)
Experimental: Blood platelets are collected in the standard manner, and incubated in an Aggregation Module Incubator-Cuvette in the presence of either the inhibitor to be tested, or without said inhibitor as a control. The aggregation of the platelets is observed after the addition of an inducer, and the samples are evaluated for the presence of a lag period and the slope of the aggregation curve, as well as the maximum height of the aggregation curve in comparison to the control.

[4] = test system: spontaneously hypertensive rats; test: Antihypertensive activity in spontaneously hypertensive rats; assay type: in vivo, rat; conditions: 50 mg per kg orally on two consecutive mornings; hydrochloride salt; measured during four hours after second dose
Experimental: Spontaneously hypertensive rats were divided into groups of four animals each with approximately equal mean systolic blood pressures. One such group serves as a control against another group which is given the compound to be tested. On two consecutive mornings, the test group was dosed orally with 50 mg per kg of 1-ethyl-2-(1,4-benzodioxane-2-ylmethyl)imidazole as a hydrochloride salt which was suspended in a vehicle of water and tween. The control group received vehicle only. Immediately after dosing on the second day, the rats were put in restrainers and placed in a heated chamber at 30° C. for four hours.
During this time, systolic blood pressures were determined at four consecutive 20 second intervals using photoelectric transducers. The mean systolic blood pressure of each rat (as an average of these four measurements) was recorded. The results are given as percentage lowering of the mean systolic blood pressure in the experimental as compared with the control group.

CCn1ccnc1CC1COc2ccccc2O1 (stereo not drawn) [1-ethyl-2-(1,4-benzodioxan-2-ylmethyl)imidazole]
pA2 (α1) ([1]; for 1-ethyl b174 = lot No. 1, b175 = lot No. 2): 4.00
Kb [1]: 100 µM
LD50 [2]: 200 mg/kg

CCn1ccnc1CC1COc2ccccc2O1 (stereo not drawn) [1-ethyl-2-(1,4-benzodioxane-2-ylmethyl)imidazole]
inhibition at 1000 µM ([3]; inducer ADP (5 × 10^-6 M), at 10^-3 M, read-out: inhibition From Slope (Rate)): 20%
IC50 ([3]; inducer ADP (5 × 10^-6 M), read-out: IC50 From Maximum Height (ΔT)): 1000 µM
IC50 ([3]; inducer arachidonic acid (2.5 × 10^-4 M), read-out: IC50 From Maximum Height (ΔT)): 190 µM
IC50 ([3]; inducer arachidonic acid (2.5 × 10^-4 M), read-out: IC50 From Slope (Rate)): 310 µM
inhibition at 500 µM ([3]; inducer collagen (30&)): 27%
IC50 ([3]; inducer collagen (30&), read-out: IC50 From Slope (Rate)): 450 µM
inhibition at 50 µM ([3]; inducer epinephrine (5 × 10^-6 M), 5 × 10^-5 M, read-out: inhibition From Slope (Rate)): 99%
inhibition at 500 µM ([3]; inducer epinephrine (5 × 10^-6 M)): 5%
lowering of the mean systolic blood pressure compared with control group [4]: 29%

Cn1ccnc1CC1COc2ccccc2O1 (stereo not drawn) [1-methyl-2-(1,4-benzodioxan-2-ylmethyl)imidazole]
Kb [1]: 50.1 µM

CCCn1ccnc1CC1COc2ccccc2O1 (stereo not drawn) [1-propyl-2-(1,4-benzodioxan-2-ylmethyl)imidazole]
Kb [1]: 63.1 µM
LD50 [2]: 200 mg/kg

c1ccc2c(c1)OCC(Cc1ncc[nH]1)O2 (stereo not drawn) [2-(1,4-benzodioxan-2-ylmethyl)imidazole]
Kb [1]: 0.794 µM
LD50 [2]: 70 mg/kg

c1ccc2c(c1)OCC(CCc1ncc[nH]1)O2 (stereo not drawn) [2-(2-(1,4-benzodioxan-2-yl)ethyl)imidazole]
Kb [1]: 0.617 µM
